Laboratory results reported in PubChem BioAssay AID1963959 (Molecular Pharmacology Branch, DTP, NCI, 2024).

System: T-47D spheroids with HUVEC/MSC, viability
Test: Anticancer human tumor T-47D cell line growth inhibition [PI3K];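 further: spheroids exposed to agents for seven days before reading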;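 on viability, T/C: percent of DMSO vehicle control luminescence so 100% = untreated growth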
Settings: for IC50: curve of first compound; for viability, T/C: stronger effect = lower value; active means viability on the fitted dose curve at most 10% of control; inactive means the rest
Excerpt: Combinatorial screen of targeted agents with the PI3K inhibitors inavolisib, alpelisib, duvelisib, and copanlisib in multi-cell type tumor spheroids
A high-throughput screen of multi-cell type tumor spheroids was designed to identify active combinations of targeted small molecules and PI3K pathway inhibitors. Complex spheroids include a stromal component modeled by human endothelial cells (HUVEC) and fibroblasts modeled by human mesenchymal stem cells (MSCs). The concentration ranges selected for each drug and investigational agent were based upon clinically achievable concentrations if the clinical Cmax of the agent was known.
Compounds. The drugs and investigational agents: inavolisib (NSC800729), alpelisib (NSC765974), duvelisib (NSC772469), copanlisib (NSC816437), ipatasertib (NSC767898), afuresertib (NSC778305), talazoparib (NSC767125), sapanisertib (NSC764658), selumetinib (NSC741078), tovorafenib (DAY101, NSC766906), vemurafenib (NSC761431), ravoxertinib (NSC781343), sotorasib (NSC818433), MRTX1133 (NSC 836407), abemaciclib (NSC 768073), palbociclib (NSC758247), venetoclax (NSC 766270), SY5609 (NSC837396), enzalutamide (NSC755605), and darolutamide (NSC825331), were obtained from the National Cancer Institute (NCI) Developmental Therapeutics Program Chemical Repository. The FDA-approved anticancer drug set is available from the NCI Developmental Therapeutics Program. […] The stock solutions were prepared in dimethyl sulfoxide (DMSO, Sigma-Aldrich, St. Louis, MO, cat. D2650) at 800-fold the tested concentration and stored at -70 degrees C prior to their use. All drugs and investigational agents were tested over a range starting from a high concentration at or near the clinical Cmax and decreasing in half-log increments. If the clinical Cmax for an agent had not been determined, the highest concentration tested was 10 microM.
Cell Culture. All cells were maintained in an incubator at 37 degrees C and 5% CO2 with 95% humidity. The PDC lines were cultured according to standard operating procedures established by the NCI PDMR (https://pdmr.cancer.gov/sops/default.htm). All PDCs were thawed and cultured in Matrigel-coated flasks prepared with a working solution of 1X Ham's F-12 nutrient mix, without supplementation (Invitrogen, Waltham, MA, cat. 11765054), 100 U/mL penicillin-streptomycin (Invitrogen, cat. 15140122), and 2.5% Matrigel (Corning Inc., Corning, NY, cat. 354248) for the first three passages. The 354836-022-R-J1-PDC, 475296-252-R-J1-PDC, and 997726-040-R-J2-PDC lines were cultured in 6A media, which includes advanced DMEM/F-12 (Thermo Fisher Scientific, cat. 12634028), 10 mM HEPES (Thermo Fisher Scientific, cat. 15630080), 1X GlutaMAX supplement (Thermo Fisher Scientific, cat. 35050061), 0.1 mg/mL primocin (InvivoGen, San Diego, CA, cat. ant-pm-2), 10% defined fetal bovine serum, heat inactivated (HyClone Laboratories Inc., Logan, UT, cat. SH30070.03HI), 50% L-WRN conditioned media (ATCC, cat. CRL-3276), 1.25 mM N-Acetyl-L-cysteine (Sigma-Aldrich, cat. A9165), 10 mM nicotinamide (Sigma-Aldrich, cat. N0636), 1X B-27 supplement (Thermo Fisher Scientific, cat. 17504044), 1X N-2 supplement (Thermo Fisher Scientific, cat. 17502048), and 10 microM Y-27632 dihydrochloride (Tocris Bioscience, Bristol, United Kingdom, cat. 1254). The 624824-186-R-J2-PDC line was cultured in 6C/Colon 1B media, which includes all 6A media components plus 50 ng/mL human EGF recombinant protein (Thermo Fisher Scientific, cat. PHG0311). […]

Cn1nccc1Nc1nccc(-c2ccn(C(CO)c3ccc(Cl)c(F)c3)c(=O)c2)n1 (configuration not stated) + COc1c(OCCCN2CCOCC2)ccc2c3n(c(=NC(=O)c4cnc(N)nc4)nc12)CCN3
> 10 µM: IC50 (second compound 0.00316 µM) | IC50 (second compound 0.01 µM) | IC50 (second compound 0.0316 µM)
< 0.0316 µM: IC50 (second compound 0.1 µM) | IC50 (second compound 0.316 µM) | IC50 (second compound 1 µM)
active: viability, T/C (second compound 1 µM, first compound 0.0316 µM) 8.45% | viability, T/C (second compound 1 µM, first compound 0.1 µM) 6.31% | viability, T/C (second compound 1 µM, first compound 0.316 µM) 9.37% | viability, T/C (second compound 1 µM, first compound 1 µM) 7.73% | viability, T/C (second compound 1 µM, first compound 3.16 µM) 9.27% | viability, T/C (second compound 1 µM, first compound 10 µM) 7.43%
inactive: viability, T/C (second compound 0.00316 µM, first compound 0.0316 µM) 107% | viability, T/C (second compound 0.00316 µM, first compound 0.1 µM) 94% | viability, T/C (second compound 0.00316 µM, first compound 0.316 µM) 94.2% | viability, T/C (second compound 0.00316 µM, first compound 1 µM) 102% | viability, T/C (second compound 0.00316 µM, first compound 3.16 µM) 99.9% | viability, T/C (second compound 0.00316 µM, first compound 10 µM) 104% | viability, T/C (second compound 0.01 µM, first compound 0.0316 µM) 104% | viability, T/C (second compound 0.01 µM, first compound 0.1 µM) 88% | viability, T/C (second compound 0.01 µM, first compound 0.316 µM) 107% | viability, T/C (second compound 0.01 µM, first compound 1 µM) 83.6% | viability, T/C (second compound 0.01 µM, first compound 3.16 µM) 103% | viability, T/C (second compound 0.01 µM, first compound 10 µM) 86.4% | viability, T/C (second compound 0.0316 µM, first compound 0.0316 µM) 70% | viability, T/C (second compound 0.0316 µM, first compound 0.1 µM) 72.3% | viability, T/C (second compound 0.0316 µM, first compound 0.316 µM) 70.1% | viability, T/C (second compound 0.0316 µM, first compound 1 µM) 77% | viability, T/C (second compound 0.0316 µM, first compound 3.16 µM) 67.5% | viability, T/C (second compound 0.0316 µM, first compound 10 µM) 69.6% | viability, T/C (second compound 0.1 µM, first compound 0.0316 µM) 40.9% | viability, T/C (second compound 0.1 µM, first compound 0.1 µM) 39.7% | viability, T/C (second compound 0.1 µM, first compound 0.316 µM) 38.3% | viability, T/C (second compound 0.1 µM, first compound 1 µM) 48.5% | viability, T/C (second compound 0.1 µM, first compound 3.16 µM) 46.6% | viability, T/C (second compound 0.1 µM, first compound 10 µM) 48.2% | viability, T/C (second compound 0.316 µM, first compound 0.0316 µM) 20.7% | viability, T/C (second compound 0.316 µM, first compound 0.1 µM) 20.4% | viability, T/C (second compound 0.316 µM, first compound 0.316 µM) 17.8% | viability, T/C (second compound 0.316 µM, first compound 1 µM) 24.5% | viability, T/C (second compound 0.316 µM, first compound 3.16 µM) 20.7% | viability, T/C (second compound 0.316 µM, first compound 10 µM) 22.7%
